Experiments:
[1] = log P by HPLC on a reversed-phase column (C 18), EEC Directive 79/831 Annex V.A8; assay type: physicochemical; settings: Table 1; HPLC C 18, 40° C., 0.1% aqueous formic acid and acetonitrile; several values = mixture of 2 or more isomers
Procedure: In table 1, the log P values were determined in accordance with EEC Directive 79/831 Annex V.A8 by HPLC (High Performance Liquid Chromatography) on a reversed-phase column (C 18), using the method described below:
Temperature: 40° C.; Mobile phases: 0.1% aqueous formic acid and acetonitrile; linear gradient from 10% acetonitrile to 90% acetonitrile.
Calibration was carried out using unbranched alkan-2-ones (comprising 3 to 16 carbon atoms) with known log P values (determination of the log P values by the retention times using linear interpolation between two successive alkanones). lambda-max-values were determined using UV-spectra from 200 nm to 400 nm and the peak values of the chromatographic signals.

[2] = tested on: Sphaerotheca fuliginea; experiment: In vivo preventive test on Sphaerotheca fuliginea (powdery mildew on cucurbits); settings: 500 ppm, gherkin plants, grading 12 days after contamination
Procedure: The active ingredients tested are prepared by homogenization in a mixture of acetone/tween/DMSO and then diluted with water to obtain the desired active material concentration.
Gherkin plants (“Vert petit de Paris” variety), sown in starter cups on a 50/50 peat soil-pozzolana substrate and grown at 24° C., are treated at the Z11 cotyledon stage by spraying with the active ingredient prepared as described above. Plants, used as controls, are treated with the mixture of acetone/tween/DMSO/water not containing the active material.
After 24 hours, the plants are contaminated by spraying the cotyledons with an aqueous suspension of Sphaerotheca fuliginea spores (100 000 spores per mL). The spores are collected from infected plants. The contaminated gherkin plants are incubated at about 20° C. and at 70-80% relative humidity.
(§1) Grading (% of efficacy) is carried out 12 days after the contamination, in comparison with the control plants.
Under these conditions, good (at least 70%) to total protection is observed at a dose of 500 ppm of active ingredient with the following compounds from table A: […]

[3] = tested on: Alternaria brassicae; experiment: In vivo preventive test on Alternaria brassicae (leaf spot on radish); settings: Table C1, 500 ppm, radish plants, grading 6 days after contamination
Procedure: (§2) The active ingredients tested are prepared by homogenization in a mixture of acetone/tween/DMSO, and then diluted with water to obtain the desired active material concentration.
Radish plants (“Pernod Clair” variety), sown in starter cups on a 50/50 peat soil pozzolana substrate and grown at 17° C., are treated at the cotyledon stage by spraying with the active ingredient prepared as described above. Plants, used as controls, are treated with the mixture of acetone/tween/DMSO/water not containing the active material.
After 24 hours, the plants are contaminated by spraying the cotyledons with an aqueous suspension of Alternaria brassicae spores (50 000 spores per mL). The spores are collected from a 15-day-old culture.
The contaminated radish plants are incubated at 20° C. and at 100% relative humidity.
Grading (% of efficacy) is carried out 6 days after the contamination, in comparison with the control plants.
Under these conditions, high (at least 80%) to excellent (at least 90%) protection is observed at a dose of 500 ppm of active ingredient with the following compounds from table C1: […]

[4] = tested on: Pyrenophora teres; experiment: In vivo preventive test on Pyrenophora teres (barley); settings: 500 ppm of active ingredient; barley plants, preventive spray; grading 14 days after contamination
Procedure: as §2
Barley plants (“Plaisant” variety), sown in starter cups on a 50/50 peat soil pozzolana substrate and grown at 22° C., are treated at the 1 leaf stage (10 cm height) by spraying with the active ingredient prepared as described above. Plants, used as controls, are treated with the mixture of acetone/tween/DMSO/water not containing the active material.
After 24 hours, the plants are contaminated by spraying the leaves with an aqueous suspension of Pyrenophora teres spores (12 000 spores per mL). The spores are collected from a 12-day-old culture.
The contaminated barley plants are incubated for 48 hours at 20° C. and at 100% relative humidity, and then for 12 days at 20° C. at 70-80% relative humidity.
Grading (% of efficacy) is carried out 14 days after the contamination, in comparison with the control plants.
Under these conditions, good (at least 70%) to total protection is observed at a dose of 500 ppm of active ingredient with the following compounds from table H1: […]

[5] = tested on: Puccinia recondita; experiment: In vivo preventive test on Puccinia recondita (brown rust on wheat); settings: 500 ppm of active ingredient; wheat plants, preventive spray; grading 12 days after contamination
Procedure: as §2
(§3) Wheat plants (“Scipion” variety), sown in starter cups on a 50/50 peat soil pozzolana substrate and grown at 22° C., are treated at the 1 leaf stage (10 cm height) by spraying with the active ingredient prepared as described above. Plants, used as controls, are treated with the mixture of acetone/tween/DMSO/water not containing the active material.
(§4) After 24 hours, the plants are contaminated by spraying the leaves with an aqueous suspension of Puccinia recondita spores (100 000 spores per mL). The spores are collected from an infected plant and are suspended in water containing 2.5 mL/L of Tween 80 at 10%. The contaminated wheat plants are incubated for 24 hours at 20° C. and at 100% relative humidity, and then for 10 days at 20° C. and at 70-80% relative humidity.
as §1
Under these conditions, good (at least 70%) to total protection is observed at a dose of 500 ppm of active ingredient with the following compounds from table I: […]

[6] = tested on: Septoria tritici; experiment: In vivo preventive test on Septoria tritici (wheat); settings: 500 ppm of active ingredient; wheat plants, preventive spray; grading 24 days after contamination
Procedure: as §2, §3
After 24 hours, the plants are contaminated by spraying the leaves with an aqueous suspension of cryopreserved Septoria tritici spores (500 000 spores per mL). The contaminated wheat plants are incubated for 72 hours at 18° C. and at 100% relative humidity, and then for 21 days at 90% relative humidity.
Grading (% of efficacy) is carried out 24 days after the contamination, in comparison with the control plants.
Under these conditions, good (at least 70%) to total protection is observed at a dose of 500 ppm of active ingredient with the following compounds from table J: […]

[7] = tested on: Uromyces appendiculatus; experiment: In vivo preventive test on Uromyces appendiculatus (bean rust); settings: 500 ppm of active ingredient; bean plants, preventive spray; grading 11 days after contamination (table K1)
Procedure: as §2
as §4, with “of Uromyces appendiculatus” for “of Puccinia recondita”, “spores (150” for “spores (100”, “from” for “from an”, “infected plants” for “infected plant”, “contaminated bean” for “contaminated wheat”
Grading (% of efficacy) is carried out 11 days after the contamination, in comparison with the control plants.

Question: What does the source list for `CC1CC=C(c2ccccc2C(C)N(C(=O)c2c(C(F)F)nn(C)c2F)C2CC2)CC1` (mixture of isomers) [I.45]?
Answer: logP [1]: 5.03; Efficacy [2]: 100%; Efficacy [3]: 98%; Efficacy [4]: 97%; Efficacy [5]: 81%; Efficacy [6]: 100%; Efficacy [7]: 75%

Question: With `Cn1nc(C(F)F)c(C(=O)N(Cc2c(C(F)(F)F)ccc(C3=CCCC3)c2F)C2CC2)c1F` [I.7] as the compound, how does the logP [1] read?
Answer: 4.81

Question: And the Efficacy [2]?
Answer: 100%

Question: And the Efficacy [3]?
Answer: 80%

Question: And the Efficacy [4]?
Answer: 86%

Question: And the Efficacy [5]?
Answer: 81%

Question: What about the Efficacy [6] of the same compound?
Answer: 97%

Question: And the Efficacy [7]?
Answer: 98%

Question: For `Cn1nc(C(F)F)c(C(=O)N(Cc2c(C3=CCCC3)ccc(F)c2F)C2CC2)c1F` [I.19], which logP [1] is on record?
Answer: 4.11

Question: And the Efficacy [2]?
Answer: 100%

Question: What about the Efficacy [3] of the same compound?
Answer: 96%

Question: What about the Efficacy [4] of the same compound?
Answer: 93%

Question: What about the Efficacy [5] of the same compound?
Answer: 98%

Question: What about the Efficacy [6] of the same compound?
Answer: 97%

Question: What about the Efficacy [7] of the same compound?
Answer: 100%

— patent publication US9540314B2, “N-cycloalkyl-N-[(cycloalkenylphenyl)methylene]-(thio) carboxamide derivatives” (BAYER INTELLECTUAL PROPERTY GMBH, priority 2012, dated 2017)
